Measured values as given in patent publication US20150150892A1, “METHODS AND PRODUCTS RELATED TO LUNG CANCER” (Massachusetts Institute of Technology, priority 2012, published 2015).

Tests used:
[1] = test system: KrasL^St-G12Dwt (low NF-κB) mice; experiment: FIG. 19 study, mice with low NF-κB; assay type: in vivo, mouse; conditions: 1 mg/kg IV bortezomib
Method: (§1) FIG. 19 is a schetaic diagram showing the experimental conditions and a set of graphs showing the results. Two sets of mice were treated with […] IV bortezomib, Kras^G120;p53^fl/fl (high NF-κB, top panel) or KrasL^St-G12Dwt (low NF-κB, bottom panel). […] The relapsed tumors have high Hmcgs2.
(§2) Mice having either high or low levels of NF-κB were treated with […] IV bortezomib and examined for tumor progression, apoptosis and survival. The mice are Kras^G120;p53^fl/fl (high NF-κB) or KrasL^St-G12Dwt (low NF-κB). […] The relapsed tumors have high Hmcgs2.

[2] = test system: advanced NSCLC patients previously treated with chemotherapy; conditions: cited from earlier work
[3] = test system: Kras^G120;p53^fl/fl (high NF-κB) mice; experiment: FIG. 19 study, mice with high NF-κB; assay type: in vivo, mouse; conditions: 1 kg/mg IV bortezomib
Method: as §1, §2

[4] = test system: NF-κB transcription factor subunit p65; experiment: Immunoblot of nuclear and cytoplasmic p65 in KP cell lines; assay type: cell-based, mouse; conditions: 5 nM bortezomib, 24 hours, KP1 and KP2 cell lines, vs vehicle control
Method: (§3) FIG. 1. Bortezomib inhibits NF-κB signaling and induces apoptosis in murine lung adenocarcinoma cell lines. (1A) reduction of nuclear p65 level by bortezomib. Two KP (KrasLSL-G12D/wt;p53flox/flox) cell lines (KP1 and KP2) were treated with 5 nM bortezomib (BZ) or vehicle control (ctrl) for 24 hours. Nuclear (N) and cytoplasmic (C) fractions of protein lysates were immunoblotted with the indicated antibodies. NEMO and Parp serve as cytoplasmic and nuclear loading controls, respectively. (1B) quantitative PCR analysis of a subset of NF-κB target genes in 5 nM bortezomib (BZ)-treated KP cells at the indicated time points. Vehicle control is set to 1. (1C) apoptosis in KP and KP^M (KrasLSL-G12D/wt;p53R127H/−) cells induced by bortezomib. Cells were pre-treated with 5 nM bortezomib for 24 hours, and protein lysates were immunoblotted with CC3 and tubulin antibodies. (1D) quantification of cell death in bortezomib-treated cells. Cells were treated with the indicated concentrations of bortezomib for 24 hours, and dead cells were quantified by Trypan blue staining. Error bars are SD (n=3).
Cell pellets were lysed in Laemmli buffer. Equal amounts of protein (16 μg) were separated on 10% SDS-polyacrylamide gels and transferred to polyvinylidene difluoride membranes. […]

[5] = test system: KP and KP^M cells; experiment: Cleaved caspase 3 (CC3) immunoblot in lung adenocarcinoma cells; assay type: cell-based, mouse; conditions: 5 nM bortezomib, 24 hours, KP and KP^M cells
Method: as §3
FIG. 17: Bay-117082 induces cell death In KP cells. […] (17B) Bay-117082 induces apoptosis in KP cells. Cells were treated with 10IJM Bay-117082 for 48 hours. Protein lysates were immunoblotted with cleaved caspase 3 (CC3) and Tubulin antibodies.
Cell pellets were lysed in Laemmli buffer. […]

[6] = cited from earlier work
[7] = test system: KP lung cancer cells in NCR nu/nu mice; experiment: Subcutaneous tumor model, caliper tumor volume; conditions: KP cells s.c. in immunocompromised mice
Method: 1×10^6 KP lung cancer cells were injected subcutaneously into NCR nu/nu mice. Tumor volume was quantified by caliper measurements. Treatments started when tumors reached −100 mm^3 (set to 1 in tumor volume axis and 0 days in time axis). Arrows indicate Bortezomib (1 mg/kg) or Cisplatin (7 mg/kg) injections. Error bars are s.d (n=4).
To compare the efficacy of bortezomib to that of other lung cancer therapies, we injected KP lung tumor cells s.c. into immunocompromised mice, allowed tumors to form, and then treated the mice with bortezomib.

For `CC(C)C[C@H](NC(=O)[C@H](Cc1ccccc1)NC(=O)c1cnccn1)B(O)O` [bortezomib, N-(2-pyrazine) carbonyl-L-phenylalanine-L-leucine boronic acid], the “tumor response, apoptosis and survival (FIG. 19)” value [1] is given as “no tumor regression, apoptosis and no survival advantage”, the “effects in Phase II clinical trials” value [2] is given as “modest effects” and the “tumor response, apoptosis and survival (FIG. 19)” value [3] is given as “rapid tumor progression, apoptosis, and increased survival”. For the same compound, the “nuclear accumulation of p65” value [4] was “reduced nuclear accumulation”, the “cleaved caspase 3 (CC3)” value [5] was “increased cleaved caspase 3” and the half-life in vivo [6] was “short half-life”. For the same compound, the “tumor volume, short term” value ([7]; Bortezomib 1 mg/kg) was “markedly reduced tumor volumes” and the tumor progression ([7]; Bortezomib 1 mg/kg or Cisplatin 7 mg/kg) was “diminished tumor progression to a similar extent as cisplatin”.
